Data published in patent publication US9101582B2, “Use of a pneumococcal P4 peptide for enhancing opsonophagocytosis in response to a pathogen” (priority 2008, dated 2015).
Where “and” joins values, the source holds several entries; their conditions need not be identical. Identical values can stand only once. Entries after “also recorded” stand apart in the source; their conditions may differ. Ends that are not written are not given here.

Legend:
[1] = test system: S. pneumoniae serotype 3 (WU2); assay: Combination therapy of moribund mice after intranasal S. pneumoniae WU2 infection (Example 2); format: in vivo
From the text: S. pneumoniae serotype 3 (WU2) was used for mouse infections as described previously (Rajam et al. J. Infect. Dis. 199:1233-1238, 1999). P4, a 28-amino-acid peptide, was synthesized, purified, and prepared for combination therapy as described previously (Carlone et al. Microb. Pathog. 44:186-196, 2008). Gamma globulin (intravenous immunoglobulin [IVIG]; Gamunex, Telecris, N.C.) was used as a source of Pnc serotype-specific polysaccharide antibodies (Frasch and Scott Clin. Diagn. Lab. Immunol. 11:1158-1164, 2004; Rajam et al., Clin. Vaccine Immunol. 14:1223-1227, 2007; Romero-Steiner et al., Clin. Diagn. Lab. Immunol. 10:1019-1024, 2003). Ceftriaxone (catalog no. C5793; Sigma-Aldrich, St. Louis, Mo.), an expanded-spectrum cephalosporin, was dissolved in phosphate-buffered saline (0.01 M), and working dilutions in phosphate-buffered saline were made for mouse inoculations.
Female Swiss Webster mice (Charles River Laboratories, Wilmington, Mass.) 6 to 10 weeks of age were used in this study. All experiments were approved by the Institutional Animal Care and Use Committee (IACUC) and conducted according to the institutional ethical guidelines for animal experiments and safety guidelines.
Intranasal infections of mice with a Pnc isolate were carried out by adopting the methodology described by Briles et al., 2003. Briefly, a mouse was injected intraperitoneally (ip) with 20 μl of 100-mg/ml ketamine hydrochloride (KETASET®; Wyeth). Once the mouse was lethargic, 40 μl of the bacterial suspension (˜2.1×10^7 cells/mouse) was dispensed drop by drop close to the nose, allowing the mouse to inhale the bacteria. Scruffiness combined with a hunched posture or lethargy indicated moribundity in a mouse. […] Control groups included untreated animals or animals that received P4 alone, IVIG alone, or ceftriaxone (at 0.3, 3.0, 300, or 3,000 μg/mouse) alone. Treatment groups included mice that received a single inoculum containing P4 and IVIG with or without ceftriaxone at one of three different doses (0.3, 3.0, or 300 μg/mouse).
Mice were restrained using a Tailveiner restrainer (model no. TV-150; Braintree Scientific, Braintree, Mass.). IVIG and/or P4 was administered intravenously (iv) using a 25-gauge needle and a 1-ml syringe. IVIG (100-μl volume/mouse) was administered first, followed 20 min later by P4 (50 μg in a 100-μl volume/mouse). Ceftriaxone was administered (ip in a 100-μl volume/mouse) 30 min after P4 administration. Animals were monitored daily for 7 days or (in the repeat infection study) 36 days post treatment for clinical signs of disease progression. For repeat therapy, mice rescued with P4 combination therapy were reinfected on day 28 post treatment and treated again with P4 combination therapy.
The in vivo combination therapy experiments were repeated three to five times, and repeat therapy was performed once. The numbers of moribund animals up to 7 and 36 days after the combination and repeat therapies, respectively, were recorded, and the data were analyzed for significant differences among various groups by using the paired two-sample t test for means in MICROSOFT® Excel 2003.

[2] = test system: S. pneumoniae serotype 3 (WU2); assay: Opsonophagocytic killing (OPK) assay with HL-60 cells differentiated into granulocytes; format: cell-based, Streptococcus pneumoniae
[3] = test system: HL-60-derived monocytes; assay: fOPA, OPU of N. meningitidis A Ps-coated beads; format: cell-based, human; details: P4 100 μg/mL; QC268 serum; FIG. 2C
Method: (§1) The flow cytometric opsonophagocytic assay (fOPA) was performed with HL-60 cells differentiated into granulocytes or monocytes as described by Martinez et al., Clin Diagn Lab Immunol 9:485-8, 2002; Martinez et al., Clin Vaccine Immunol 13:459-66, 2006; and Mezzatesta et al., Infect Immun 42:99-105, 1983. In-house quality-control sera (QC5 and QC268) were used as a source for serotypespecific antibodies against the capsular Ps of S. pneumoniae serotype 14 and Neisseria meningitides A, respectively. Polystyrene beads were covalently linked to S. pneumoniae and non-S. pneumoniae antigens, as described by Martinez et al., Clin Diagn Lab Immunol 9:485-8, 2002; and Martinez et al., Clin Vaccine Immunol 13:459-66, 2006 and used in fOPA.

[4] = test system: S. pneumoniae serotype 3 (WU2); assay: Test for bacteremia in blood of treated mice; format: in vivo; details: P4-treated mice
Method: Blood samples from P4-treated and untreated mice were collected (Rajam et al., J. Infect. Dis. 199:1233-1238, 2009), and […] aliquots of the heparinized blood samples were spread onto plates of blood agar (blood agar base plus 5% sheep blood plus gentamicin [2.5 mg/liter]). The plates were incubated for 18 to 24 hours at 37° C. in 5% CO^2, and bacteria were counted.

[5] = test system: anti-P4 IgG; details: serum 14 days post infection from mice treated with P4 therapy
Method: Blood samples from mice treated with P4 therapy were collected 14 days post infection, and the serum fractions were separated by adopting the methodology described previously (Rajam, 2009). An enzyme-linked immunosorbent assay (ELISA) was performed to detect and quantify antiprotein immunoglobulin G (IgG) as described previously, with minor modifications (Scott, et al., Clin. Diagn. Lab. Immunol. 12:1195-1201, 2005; Scott et al., J. Infect. Dis. 186:220-226, 2002). Briefly, ELISA plates were coated with the P4 peptide at a 5-μg/ml concentration. Plates were incubated at 4° C. overnight and used to detect and quantify anti-P4 IgG in mouse sera. Horseradish peroxidase-labeled anti-mouse IgG (Sigma, St. Louis, Mo.) was used as the reporter antibody. SUREBLUE® 3,3′,5,5′-tetramethylbenzidine (KPL, Gaithersburg, Md.) was used as the substrate, and 1 N HCl was used as the stop solution. Samples were assayed in triplicate, and suitable positive and negative controls were included.

[6] = test system: HL-60-derived granulocytes; assay: Flow cytometric opsonophagocytic assay (fOPA), respiratory burst with OXYBURST-labeled S. pneumoniae serotype 23F; format: cell-based, human; details: P4 100 μg/mL; QC2 serum; titrated out with antibody dilution; FIG. 2A
Method: as §1
A loopful of the frozen stock of S. pneumoniae serotype 23F was grown overnight (37° C. in 5% CO2) in Todd-Hewitt broth (Difco) supplemented with 0.5% yeast extract (THYE). A loopful of the overnight culture was transferred to 1 mL of fresh THYE broth and incubated for 3 hours. From this, 200 μL was transferred to 5 mL of THYE broth and incubated for 3 hours, after which 1 mL was transferred to 5 mL of THYE broth and incubated for another 3 hours (all incubations were done at 37° C. in 5% CO2). After the third passage, the bacterial suspension was centrifuged at 6000 g for 10 minutes and resuspended in 1 mL of 0.01 mol/L phosphate buffered saline (PBS). […]

[7] = P4 toxicity test in mice; format: in vivo; details: ip, 1, 10, 100 and 1000 μg/mouse; 10-week-old ND4-SW mice
Method: At 72 hours, all the infected mice were moribund (n=60; moribund score, 2-3 [see below]). At 72 and 96 hours after infection, 40 animals were passively immunized with gamma globulin (100 μL/mouse; iv, n=20; ip, n=20). After a time lapse of 20 minutes, allowing for possible preopsonization in vivo, 20 of the passively immunized mice (intravenous (iv), n=10; intraperitoneal (ip), n=10) received P4 (100 μg; 100 μL/mouse) through an iv or ip route. Control mice were given DEPC water (100 μL) or P4 alone. Initially, P4 peptide was tested for toxicity in mice at 1, 10, 100, and 1000 μg. P4 was injected ip into 10-week-old ND4-SW mice at a constant volume of 100 μL.

[8] = test system: S. pneumoniae serotype 3 (WU2); details: P4 100 μg/ml; PMNs from infected (1 and 2 hours postinfection) or uninfected mice; gamma globulin as IgG source; P<0.05
Method: We used the in vitro opsonophagocytic killing assay (OPKA) as described previously by Romero-Steiner et al. (Romero-Steiner et al., Clin. Diagn. Lab. Immunol. 4:415-422, 1997) with polymorphonuclear leukocytes (PMNs) isolated from mice (Devi et al., Indian J. Physiol. Pharmacol. 39:354-360, 1995). Peripheral blood samples were collected from mice 1 and 2 hours postinfection (with Pnc WU2) or from uninfected controls as described previously (Frasch and Scott, 2004), and the buffy coat fractions were separated (Devi et al, 1995) and used as the source of effector cells. Gamma globulin (Gamunex, Telecris, N.C.) was used as the serotype-specific antibody source. S. pneumoniae serotype 3 (WU2) was propagated, stored, and used in this assay as described previously (Rajam et al., 2007; Romero-Steiner, 2006). A 100-μg/ml P4 peptide solution was added to the OPKA mixture at the preopsonization stage, and the control wells received diethyl pyrocarbonate water.

[9] = test system: freshly isolated granulocytes from human blood; assay: fOPA, opsonophagocytic uptake (OPU) of S. pneumoniae serotype 14 Ps-coated beads; format: cell-based; details: P4 100 μg/mL
Method: as §1
Heparinized venous blood was obtained from the Emory Blood Donor Services. A leukocyte separation kit, HISTOPAQUE®-1119 (Sigma), was used to separate granulocytes from the blood, in accordance with the method recommended by the manufacturer.

Molecule: CO/N=C(\C(=O)N[C@@H]1C(=O)N2C(C(=O)O)=C(CSc3nc(=O)c(=O)[nH]n3C)CS[C@H]12)c1csc(N)n1 [ceftriaxone, Ceftriaxone]
- protection (survival comparable to untreated controls) ([1]; ceftriaxone alone 0.3 μg ip): poor protection
- protection (survival comparable to untreated controls) ([1]; ceftriaxone alone 3.0 μg ip): poor protection
- protection (survival comparable to untreated controls) ([1]; ceftriaxone alone 300 μg ip): poor protection
- survival rate ([1]; ceftriaxone alone 3,000 μg ip, 168 hours): 90%

Molecule: LFVESSVKRRPMKTVSQDTNIPIYAQIF [P4]
- P4-mediated change in OPK over control ([2]; P4 5 μg/mL, gamma globulin 1:8, FIG. 1C): no change in OPK
- P4-mediated increase in OPK over control ([2]; P4 10 μg/mL, gamma globulin 1:8, FIG. 1C): 8%
- P4-mediated increase in OPK over control ([2]; P4 50 μg/mL, gamma globulin 1:8, FIG. 1C): 30%
- P4-mediated increase in OPK over control ([2]; P4 100 μg/mL, gamma globulin 1:8, FIG. 1C): 35%
- P4-mediated increase in OPK over control ([2]; absence of a complement source (heat-inactivated complement), FIG. 1B): no increase in OPK
- P4-mediated increase in OPK over control ([2]; gamma globulin 1:8 dilution, P4 100 μg/mL, FIG. 1A): 35%
- P4-mediated increase in OPK over control ([2]; gamma globulin 1:32 dilution, FIG. 1A): paralleling the results obtained for controls
- OPU of N. meningitidis A Ps-coated beads [3]: increase in the OPU; also recorded: increased the OPU
- bacteremia in blood samples [4]: no bacteremia
- anti-P4 IgG in serum [5]: negative
- protection (survival comparable to untreated controls) ([1]; P4 alone): poor protection
- intraphagocytic respiratory burst (OXYBURST signal) [6]: increase in the intraphagocytic respiratory burst; also recorded: increased the respiratory burst
- toxic effect on mice [7]: no apparent toxic effect
- increase in opsonophagocytic killing over control [8]: > 80% and 80%
- increase in OPU of S. pneumoniae serotype 14 Ps beads ([9]; antibody dilution 1:64): 52%
- increase in OPU of S. pneumoniae serotype 14 Ps beads ([9]; antibody dilution 1:128): 48%
- increase in OPU of S. pneumoniae serotype 14 Ps beads ([9]; antibody dilution 1:256): 25%
- increase in OPU of S. pneumoniae serotype 14 Ps beads ([9]; antibody dilution 1:512): 5%
- OPU of S. pneumoniae serotype 14 Ps-coated beads (in words) ([9]; in the presence of QC2, FIG. 2B legend): increased the OPU
- increase in OPU of S. pneumoniae serotype 14 Ps beads ([9]; overall figure, FIG. 2B): 50%
